Reference: US11186564B2, “Dual NAV1.2/5HT2a inhibitors for treating CNS disorders” (Sunovion Pharmaceuticals Inc., priority 2016, dated 2021)
Read-outs that look alike come from different tables or passages of the source.

Legend:
[1] = target: human sodium channel NaV1.2 (Homo sapiens, UniProt Q99250); assay: NaV1.2 inhibition, automated patch-clamp (Q-Patch HTX), slow inactivated state (state C); assay type: cell-based; settings: for inhibition at 10 µM: 10 μM compound, read-out: NaV1.2 (% inh), 10 μM; for inhibition at 1 µM: 1 μM compound, read-out: NaV1.2 (% inh), 1 μM
Description: In vitro method for NaV1.2 inhibition assays: The methods utilized to assess the inhibitory activity of compounds on NaV1.2 were based on the methods described by Liu et al. [Liu Y, Beck E J, & Flores C M (2011): Validation of a patch clamp screening protocol that simultaneously measures compound activity in multiple states of the voltage-gated sodium channel Nav1.2. Assay Drug Development Technology 9, 628-634]. For these electrophysiology assays, a cell line (Chinese Hamster Ovarian K-1 cells (CHO K-1)) engineered to stably express human sodium channel NaV1.2 was purchased from Millipore Corporation (catalog no. CYL3023). The electrophysiology measurements were performed using automated patch-clamp methods on a Q-Patch HTX instrument by scientists at Evotec AG under contract with Sunovion.
The solutions utilized for the Qpatch experiments were similar buffered solutions to those described by Liu et al. [Liu Y, Beck E J, & Flores C M (2011)]. The extracellular solution contained 140 millimolar sodium chloride, 4 millimolar potassium chloride, 2 millimolar calcium chloride, 1 millimolar magnesium chloride, 10 millimolar 4-(2-hydroxyethyl)-1-piperazineethanesulfonic acid (HEPES), and 10 millimolar glucose (pH adjusted to 7.4 with sodium hydroxide). The intracellular solution contained 100 millimolar cesium fluoride, 45 millimolar cesium chloride, 10 millimolar HEPES, 5 millimolar ethylene glycol tetraacetic acid (EGTA), and 5 millimolar glucose (pH adjusted to 7.2 with cesium hydroxide).
The biophysical experiments of Lui et al. [Liu Y, Beck E J, & Flores C M (2011)] were replicated to assess the fast, slow and total inactivation characteristics of the human Nav1.2 channel
Based upon results from studies of the fast, slow and total inactivation characteristics of the human Nav1.2 channel, a voltage protocol involving a sequence of consecutive pulses of current was used to measure channel activity in several states [Liu Y, Beck E J, & Flores C M (2011)]. The monolayer of CHO K-1 cells stably expressing human sodium channel NaV1.2 (hNaV1.2 CHO cells) was maintained in the Qpatch instrument at a potential of −100 millivolts (mV) except when the voltage protocol was being executed. The first pulse in the protocol involved a 100 millisecond depolarization to 0 mV to enable measurement of channel availability in the closed state (state A). The potential was then maintained at −90 mV for 15 milliseconds, followed by a five millisecond period of depolarization to 0 mV to enable measurement of channel availability after partial recovery from fast inactivation (state B). Next, the potential was maintained at −90 mV for 300 milliseconds, followed by ten seconds at −50 mV, 15 milliseconds at −90 mV, and finally another five millisecond period of depolarization to 0 mV to enable measurement of channel availability after additional recovery from fast inactivation and significant entry into the slow inactivated state (state C). Finally, after an additional 300 millisecond period at −90 mV, another five millisecond period of depolarization to 0 mV was employed to enable measurement of channel availability after partial recovery from the slow inactivated state (state D). Measurements of activity at state C were used to assess the activity of the NaV1.2 channel in the slow inactivated state. Comparison of activity after addition of test compounds or reference compounds with activity after addition of vehicle only provided a measure of percent remaining activity from which percent inhibition was calculated. […] A slight modification of this protocol was utilized to provide measurements as a function of compound concentration, which enabled IC50 values to be determined. IC50 values were calculated by non-linear least squares regression of the data (percent inhibition of ion channel NaV1.2 activity in the slow inactivated state) onto equation (1): % inhibition=100%/(1+(IC50/[compound]) equation (1)
J Pharmacol Exp Ther. 2008 July; 326(1):89-99.].

[2] = target: T1, recombinant human serotonin receptor 5-HT2A (Homo sapiens, UniProt P28223); assay: 5-HT2A antagonist Ca2+ assay in CHO-K1 cells (method A aequorin luminescence / method B FLIPR fluorescence); assay type: cell-based; settings: antagonist mode vs EC80 of reference agonist, method A or B, read-out: 5HT2A IC50
T1 construct: expressed in transfected cells; method B: loaded with Ca2+ dye
Procedure, shortened: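 Method A: CHO-K1 cells co-expressing human 5-HT2A and mitochondrial apoaequorin were given reference agonist at EC80 15 min after compound, with luminescence read. Method B: dye-loaded 5-HT2A CHO-K1 cells were pretreated with compound, then given serotonin at EC80, with FLIPR fluorescence read. IC50s came from nonlinear fits of percent inhibition.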

[3] = hNaV1.2 CHO cells, slow inactivated state, read-out: NaV1.2 IC50
[4] = hNaV1.2 CHO cells, slow inactivated state
[5] = reference compound, Test 1, read-out: IC50 (μM) for NaV1.2 slow inactivated state, Test 1
[6] = reference compound, Test 2, read-out: IC50 (μM) for NaV1.2 slow inactivated state, Test 2
[7] = reference compound, Test 3, read-out: IC50 (μM) for NaV1.2 slow inactivated state, Test 3

T1 sequence (P28223 whole entry): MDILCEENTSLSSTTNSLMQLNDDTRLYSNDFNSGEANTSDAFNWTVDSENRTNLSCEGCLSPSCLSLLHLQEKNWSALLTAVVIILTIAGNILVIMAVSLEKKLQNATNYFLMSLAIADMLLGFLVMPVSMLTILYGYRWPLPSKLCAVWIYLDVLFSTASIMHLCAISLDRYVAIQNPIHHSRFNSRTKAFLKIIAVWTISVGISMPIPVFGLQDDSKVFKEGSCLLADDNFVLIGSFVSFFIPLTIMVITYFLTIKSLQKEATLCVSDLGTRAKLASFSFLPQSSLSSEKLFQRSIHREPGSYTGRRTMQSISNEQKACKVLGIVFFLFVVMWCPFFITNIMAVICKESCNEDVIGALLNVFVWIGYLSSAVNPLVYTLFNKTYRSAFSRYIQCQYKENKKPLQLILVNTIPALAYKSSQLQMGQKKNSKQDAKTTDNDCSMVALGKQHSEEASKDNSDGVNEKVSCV
human sodium channel NaV1.2, sequence (Q99250 whole entry): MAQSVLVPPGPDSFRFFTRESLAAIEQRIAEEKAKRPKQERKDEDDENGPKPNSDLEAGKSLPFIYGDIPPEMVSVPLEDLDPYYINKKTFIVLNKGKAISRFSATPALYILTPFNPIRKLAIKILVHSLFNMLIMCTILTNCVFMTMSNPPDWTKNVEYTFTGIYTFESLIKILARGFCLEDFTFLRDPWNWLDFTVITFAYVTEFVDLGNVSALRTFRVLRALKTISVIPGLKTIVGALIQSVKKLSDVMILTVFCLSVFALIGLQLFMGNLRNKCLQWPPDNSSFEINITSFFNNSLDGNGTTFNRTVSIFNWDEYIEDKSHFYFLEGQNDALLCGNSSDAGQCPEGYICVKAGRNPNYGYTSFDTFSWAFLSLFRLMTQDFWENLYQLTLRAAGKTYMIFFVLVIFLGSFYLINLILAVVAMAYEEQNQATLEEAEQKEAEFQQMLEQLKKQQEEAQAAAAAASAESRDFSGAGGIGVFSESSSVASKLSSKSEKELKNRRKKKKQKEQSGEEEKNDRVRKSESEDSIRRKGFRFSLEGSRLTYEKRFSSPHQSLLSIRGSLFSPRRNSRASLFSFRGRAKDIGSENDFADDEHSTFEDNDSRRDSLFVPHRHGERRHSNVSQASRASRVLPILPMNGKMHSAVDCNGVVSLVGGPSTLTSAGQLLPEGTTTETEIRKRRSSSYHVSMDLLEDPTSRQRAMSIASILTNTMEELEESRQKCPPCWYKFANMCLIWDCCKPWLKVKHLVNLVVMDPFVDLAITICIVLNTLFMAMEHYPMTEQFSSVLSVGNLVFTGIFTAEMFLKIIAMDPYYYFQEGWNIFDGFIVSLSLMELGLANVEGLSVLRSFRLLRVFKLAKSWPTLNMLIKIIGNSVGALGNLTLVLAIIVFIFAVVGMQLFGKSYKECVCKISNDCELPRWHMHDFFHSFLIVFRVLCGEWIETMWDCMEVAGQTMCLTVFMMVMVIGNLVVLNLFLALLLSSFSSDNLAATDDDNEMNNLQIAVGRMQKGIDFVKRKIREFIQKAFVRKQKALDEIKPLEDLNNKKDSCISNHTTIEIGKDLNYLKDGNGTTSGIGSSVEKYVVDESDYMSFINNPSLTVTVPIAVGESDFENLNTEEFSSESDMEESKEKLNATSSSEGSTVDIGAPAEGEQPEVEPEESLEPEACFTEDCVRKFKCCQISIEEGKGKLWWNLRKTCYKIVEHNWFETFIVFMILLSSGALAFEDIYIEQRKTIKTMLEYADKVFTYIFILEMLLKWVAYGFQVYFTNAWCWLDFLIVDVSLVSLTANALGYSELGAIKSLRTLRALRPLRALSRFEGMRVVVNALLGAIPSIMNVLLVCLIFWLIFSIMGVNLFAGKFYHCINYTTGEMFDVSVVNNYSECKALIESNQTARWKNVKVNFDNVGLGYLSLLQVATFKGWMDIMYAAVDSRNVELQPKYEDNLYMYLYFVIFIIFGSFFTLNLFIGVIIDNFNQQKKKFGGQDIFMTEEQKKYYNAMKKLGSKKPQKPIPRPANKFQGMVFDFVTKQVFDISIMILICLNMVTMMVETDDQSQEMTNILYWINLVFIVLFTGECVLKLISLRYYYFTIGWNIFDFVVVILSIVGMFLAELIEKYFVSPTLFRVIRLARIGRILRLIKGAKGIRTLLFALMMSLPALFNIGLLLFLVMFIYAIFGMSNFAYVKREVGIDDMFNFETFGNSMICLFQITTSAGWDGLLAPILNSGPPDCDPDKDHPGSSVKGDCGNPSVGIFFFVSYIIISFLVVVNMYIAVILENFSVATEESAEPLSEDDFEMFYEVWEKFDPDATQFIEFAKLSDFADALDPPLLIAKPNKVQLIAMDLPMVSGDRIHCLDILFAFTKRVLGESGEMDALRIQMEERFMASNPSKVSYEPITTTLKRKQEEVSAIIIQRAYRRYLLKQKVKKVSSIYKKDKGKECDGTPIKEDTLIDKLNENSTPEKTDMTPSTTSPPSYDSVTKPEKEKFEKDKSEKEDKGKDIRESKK

Compound | IC50 [1, 3] [µM] | IC50 [2] [nM] | other results
COc1ccccc1OC1CCN(CC2c3ccccc3CC2C)CC1 (stereo not drawn) [Example 101, 4-(2-methoxyphenoxy)-1-((2-methyl-2,3-dihydro-1H-inden-1-yl)methyl)piperidine] | 0.37 | 80 | –
Nc1ccc2c(c1)C(CN1CCC(Oc3ccc(F)cc3)CC1)CC2 (stereo not drawn) [Example 115, 3-((4-(4-fluorophenoxy)piperidin-1-yl)methyl)-2,3-dihydro-1H-inden-5-amine] | 2.58 | < 1 | –
COc1ccccc1CCN1CCC2(CCc3ccccc3O2)CC1 [Example 428, 1′-(2-methoxyphenethyl) spiro[chromane-2,4′-piperidine]] | – | 190 | inhibition at 10 µM [1, 4]: 86%
OC(COC1CCCCC1)CN1CCC2(CCc3ccccc3O2)CC1 (stereo not drawn) [Example 436, 1-(cyclohexyloxy)-3-(spiro[chromane-2,4′-piperidin]-1′-yl)propan-2-ol] | 0.26 | 20 | –
CN1Cc2ccccc2C(CCN2CCC(Oc3ccc(F)cc3)CC2)C1 (stereo not drawn) [Example 180, 4-(2-(4-(4-fluorophenoxy)piperidin-1-yl)ethyl)-2-methyl-1,2,3,4-tetrahydroisoquinoline] | – | 320 | inhibition at 1 µM [1, 4]: 8%
N#Cc1ccc(OC2CCN(CC3CCOc4ccccc43)CC2)cc1 (stereo not drawn) [Example 166, 4-((1-(chroman-4-ylmethyl)piperidin-4-yl)oxy)benzonitrile] | – | 310 | inhibition at 1 µM [1, 4]: -2%
Cc1ccc(N2CCN(C[C@@H](O)COC3CCCCC3)CC2)cc1 [Example 78, (R)-1-(cyclohexyloxy)-3-(4-(p-tolyl)piperazin-1-yl)propan-2-ol] | 4.66 | > 10000 | –
c1ccc(OC2CCN(CCOc3ccc4cccnc4c3)CC2)cc1 [Example 232, 7-(2-(4-phenoxypiperidin-1-yl)ethoxy)quinoline] | – | 220 | inhibition at 10 µM [1, 4]: 76%
COc1ccccc1OC1CCN(CC2Cc3cccnc3C2)CC1 (stereo not drawn) [Example 139, 6-((4-(2-methoxyphenoxy)piperidin-1-yl)methyl)-6,7-dihydro-5H-cyclopenta[b]pyridine] | – | 180 | inhibition at 1 µM [1, 4]: -10%
OC(COC1CCCCC1)CN1C[C@@H]2C[C@H]1CN2c1ccccc1 (stereo partly drawn) [Example 306, 1-(cyclohexyloxy)-3-((1S,4S)-5-phenyl-2,5-diazabicyclo[2.2.1]heptan-2-yl)propan-2-ol] | – | 1660 | inhibition at 10 µM [1, 4]: 60%
O[C@H](CCN1CCC(Oc2ccccc2)CC1)c1ccccc1 [Example 227, (R)-3-(4-phenoxypiperidin-1-yl)-1-phenylpropan-1-ol] | – | 140 | inhibition at 10 µM [1, 4]: 53%
c1ccc(O[C@@H]2COC3(CCN(C[C@@H]4CCc5ccccc54)CC3)C2)cc1 (single isomer, unassigned) [Compound 383] | 0.11 | 340 | –
Fc1ccc(O[C@@H]2CCN(CC3CCc4ncccc43)C2)cc1 (stereo partly drawn) [Example 3, 5-(((R)-3-(4-fluorophenoxy)pyrrolidin-1-yl)methyl)-6,7-dihydro-5H-cyclopenta[b]pyridine] | – | 1880 | inhibition at 1 µM [1, 4]: -5%
O=C1CC2(CCN(CC3CCc4ccccc43)C2)Oc2ccccc21 (stereo not drawn) [Example 388, 1′-((2,3-dihydro-1H-inden-1-yl)methyl)spiro[chromane-2,3′-pyrrolidin]-4-one] | 1.75 | 220 | –
c1ccc2c(c1)CCC2CN1CCC2(CCc3ncccc3O2)CC1 (stereo not drawn) [Example 403, 1-((2,3-dihydro-1H-inden-1-yl)methyl)-3′,4′-dihydrospiro[piperidine-4,2′-pyrano[3,2-b]pyridine]] | – | 4 | inhibition at 1 µM [1, 4]: -4%
c1ccc2c(c1)CC(CN1CCC3(CCc4ccccc4O3)CC1)C2 [Example 410, 1′-((2,3-dihydro-1H-inden-2-yl)methyl)spiro[chromane-2,4′-piperidine]] | 0.48 | 100 | –
c1ccc(OC2CCN(CCC3COCc4ccccc43)CC2)cc1 (stereo not drawn) [Example 179, 1-(2-(isochroman-4-yl)ethyl)-4-phenoxypiperidine] | 0.61 | 60 | –
c1ccc2c(c1)CCC1(CCN(CCC3Cc4cccnc4C3)CC1)O2 (stereo not drawn) [Example 419, 1′-(2-(6,7-dihydro-5H-cyclopenta[b]pyridin-6-yl)ethyl)spiro[chromane-2,4′-piperidine]] | – | 220 | inhibition at 1 µM [1, 4]: 6%
CCC(=O)c1ccc(OCC(O)CN2CCN(c3ccccc3)CC2)cc1 (stereo not drawn) [Example 88, 1-(4-(2-hydroxy-3-(4-phenylpiperazin-1-yl)propoxy)phenyl)propan-1-one] | 31.2 | 580 | –
COc1ccc2c(c1)C(CN1CCC(OCc3ccc(F)cc3)CC1)CC2 (stereo not drawn) [Example 247, 4-((4-fluorobenzyl)oxy)-1-((6-methoxy-2,3-dihydro-1H-inden-1-yl)methyl)piperidine] | 0.27 | 100 | –
Fc1ccc(OC2CCN(CCC3COCc4ccccc43)CC2)cc1 (stereo not drawn) [Example 184, 4-(4-fluorophenoxy)-1-(2-(isochroman-4-yl)ethyl)piperidine] | – | 80 | inhibition at 1 µM [1, 4]: 35%
NC(=O)N1c2ccccc2C=Cc2ccccc21 [carbamazepine, reference compound] | – | – | IC50 [1, 5]: 19 µM; IC50 [1, 6]: 22 µM
COc1ccc2c(c1)C(CN1CCN(c3ccccc3)CC1)CC2 (stereo not drawn) [Example 54, 1-((6-methoxy-2,3-dihydro-1H-inden-1-yl)methyl)-4-phenylpiperazine] | 2.64 | – | –
Nc1nnc(-c2cccc(Cl)c2Cl)c(N)n1 [lamotrigine, reference compound] | – | – | IC50 [1, 5]: 34 µM; IC50 [1, 6]: 33 µM; IC50 [1, 7]: 25 µM
COC[C@@H](NC(C)=O)C(=O)NCc1ccccc1 [lacosamide, reference compound] | – | – | IC50 [1]: 65 µM
c1ccc(CCN2CCC3(CCc4ccccc4O3)CC2)cc1 [Example 427, l′-phenethylspiro[chromane-2,4′-piperidine]] | – | – | inhibition at 10 µM [1, 4]: 81%
COc1ccc2c(c1)C(C)(CN1CCC(Oc3ccccc3OC)CC1)CC2 (stereo not drawn) [Example 97, 1-((6-methoxy-1-methyl-2,3-dihydro-1H-inden-1-yl)methyl)-4-(2-methoxyphenoxy)piperidine] | 0.08 | – | –
CN1CCN(c2ncc(-c3cc(Cl)cc(Cl)c3Cl)c(N)n2)CC1 [sipatrigine] | – | – | IC50 [1, 5]: 1.6 µM; IC50 [1, 6]: 2.8 µM; IC50 [1, 7]: 0.6 µM; IC50 ([1]; reference compound, Test 4, read-out: IC50 (μM) for NaV1.2 slow inactivated state, Test 4): 0.5 µM
c1ccc2c(c1)CCC1(CCN(CC3CCc4ncccc43)CC1)O2 (stereo not drawn) [Example 407, 1′-((6,7-dihydro-5H-cyclopenta[b]pyridin-5-yl)methyl)spiro[chromane-2,4′-piperidine]] | – | 3640 | –
O[C@@H](COC1CCCCC1)CN1CCC(Oc2ccccc2)CC1 [Example 234, (R)-1-(cyclohexyloxy)-3-(4-phenoxypiperidin-1-yl)propan-2-ol] | – | 30 | –
